Data on 4 molecules can be found in patent publication US8470340B2, “Peptides presenting an epitope of a domain of factor H binding protein and methods of use” (priority 2008, dated 2013).

Where a chain is given by its changes, count along the chain named. In names and notes the source's numbering stands.

Experiment [1] deals with JAR 4. The experiment is described as follows: ELISA binding of native fHbp sequence peptides. The settings on record: peptides from the native v.1 fHbp sequence. Also on record: species or system murine. (ELISA stands for enzyme-linked immunosorbent assay.)
Experiment [2] deals with JAR 4. The experiment is described as follows: ELISA binding of mAb to site-specific mutant recombinant v.1 fHbp. Also on record: species or system murine. As to the method: Site-specific mutagenesis was used to test the role of amino acid residues involved in the JAR 4 anti-fHbp mAb epitope. Mutagenesis was performed using the QuikChange II kit (Stratagene) using 10 ng of plasmid template and the manufacturer's protocols. For testing residues putatively involved in mAb epitopes, mutagenesis reactions were performed on pET21-based plasmids encoding a wild-type fHbp gene. Site-specific mutagenesis was used to introduce the H26A and K27A substitution into the pET21 plasmid encoding v.1 fHbp from MC58. Mutant fHbp genes were confirmed by DNA sequencing as described for the wild-type plasmids, above.
Site-directed mutagenesis of residues 25, 26 and 27 was performed, each of which was individually changed to alanine in fHbp from the v.1 group (gene from MC58). These mutants were created using the non-signal containing sequence from strain MC58 (MVAAD . . . GLAAKQ) (SEQ ID NO:73), and are referred to as D25A, H26A and K27A, respectively. The amino acid sequences of the portions of the A domains of these mutants is provided in FIG. 7, Panel A. Results of the binding experiment between mutated fHbp and the various JAR mAbs are shown in FIG. 6.

Regarding DHKDKGLQSLTLD [SEQ ID NO: 33], the “binding to JAR 4 by ELISA” value in the experiment on JAR 4 [1] is recorded as “no detectable binding”.
As for ADALTAPLDHKDK [SEQ ID NO: 32], the “binding to JAR 4 by ELISA” value in the experiment with JAR 4 [1] is “no detectable binding”.

B1: H26A: recombinant v.1 fHbp (gene from MC58) with residue 26 changed to alanine (protein)
chain: CSSGGGGVAADIGAGLADALTAPLDAKDKGLQSLTLDQSVRKNEKLKLAAQGAEKTYGNGDSLNTGKLKNDKVSRFDFIRQIEVDGQLITLESGEFQVYKQSHSALTAFQTEQIQDSEHSGKMVAKRQFRIGDIAGEHTSFDKLPEGGRATYRGTAFGSDDAGGKLTYTIDFAAKQGNGKIEHLKSPELNVDLAAADIKPDGKRHAVISGSVLYNQAEKGSYSLGIFGGKAQEVAGSAEVKTVNGIRHIGLAAKQHHHHHH
For the molecule B1, the “decrease in JAR 4-reactivity compared with wild-type recombinant fHbp” value in the experiment with JAR 4 [2] (v.1 fHbp (gene from MC58) alanine mutants) was “approximately 10 fold”.

B2: K27A: recombinant v.1 fHbp (gene from MC58) with residue 27 changed to alanine (protein)
chain: B1 chain with A26H, K27A
On to B2, for which the “JAR 4 binding compared with wild-type recombinant fHbp” value in the experiment with JAR 4 [2] (v.1 fHbp (gene from MC58) alanine mutant) is on record as “eliminated detectable JAR 4 binding”.
